{
  "source": "patent US20110262453A1",
  "about": "“Markers for Assessing the Susceptibility of Cancer to IGF-1R Treatment” (priority 2008, published 2011)",
  "origin": "cited, not measured here",
  "key": {"IGF-1R over IR": {"molecular_target": "IGF-1R over IR (Homo sapiens, UniProt P08069)", "sequence (P08069 31-1367)": "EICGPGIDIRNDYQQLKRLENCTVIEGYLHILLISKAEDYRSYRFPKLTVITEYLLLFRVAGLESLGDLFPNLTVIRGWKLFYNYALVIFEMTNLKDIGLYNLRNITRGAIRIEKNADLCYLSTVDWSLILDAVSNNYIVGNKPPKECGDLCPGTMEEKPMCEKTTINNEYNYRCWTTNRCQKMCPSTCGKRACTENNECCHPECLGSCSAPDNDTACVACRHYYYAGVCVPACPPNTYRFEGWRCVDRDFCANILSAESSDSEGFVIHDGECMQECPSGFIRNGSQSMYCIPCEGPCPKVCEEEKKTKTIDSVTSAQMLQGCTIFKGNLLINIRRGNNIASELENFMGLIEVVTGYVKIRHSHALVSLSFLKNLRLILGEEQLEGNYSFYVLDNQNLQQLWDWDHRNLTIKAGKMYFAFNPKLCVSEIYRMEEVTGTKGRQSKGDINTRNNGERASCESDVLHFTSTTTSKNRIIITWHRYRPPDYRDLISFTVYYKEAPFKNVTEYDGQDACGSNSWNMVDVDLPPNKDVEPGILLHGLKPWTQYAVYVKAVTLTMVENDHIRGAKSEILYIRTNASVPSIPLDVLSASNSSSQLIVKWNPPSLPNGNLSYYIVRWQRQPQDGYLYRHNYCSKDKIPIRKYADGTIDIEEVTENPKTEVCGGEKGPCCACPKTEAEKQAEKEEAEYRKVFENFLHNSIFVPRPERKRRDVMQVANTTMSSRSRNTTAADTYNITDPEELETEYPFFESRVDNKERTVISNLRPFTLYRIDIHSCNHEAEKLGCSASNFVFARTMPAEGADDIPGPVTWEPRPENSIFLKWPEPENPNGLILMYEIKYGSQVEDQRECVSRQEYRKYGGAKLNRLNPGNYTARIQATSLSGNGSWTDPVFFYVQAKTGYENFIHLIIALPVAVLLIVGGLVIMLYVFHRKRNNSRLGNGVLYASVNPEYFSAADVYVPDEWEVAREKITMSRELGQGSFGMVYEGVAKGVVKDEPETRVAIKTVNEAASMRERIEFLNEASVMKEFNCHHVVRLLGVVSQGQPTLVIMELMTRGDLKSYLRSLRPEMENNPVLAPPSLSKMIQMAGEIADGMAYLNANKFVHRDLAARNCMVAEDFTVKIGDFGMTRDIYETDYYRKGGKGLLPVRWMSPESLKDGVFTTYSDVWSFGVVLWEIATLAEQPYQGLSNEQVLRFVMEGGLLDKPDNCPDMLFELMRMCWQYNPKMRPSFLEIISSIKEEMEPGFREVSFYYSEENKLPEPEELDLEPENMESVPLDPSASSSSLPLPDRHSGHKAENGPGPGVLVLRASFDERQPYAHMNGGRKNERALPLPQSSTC"}, "[1]": {"test_system": "xenografted and allografted mice"}, "IGF-1R": {"molecular_target": "IGF-1R (Homo sapiens, UniProt P08069)", "sequence (P08069 31-1367)": "as above"}, "[2]": {"test_system": "cultured IGF-1R-positive tumor cells"}},
  "data": [
    {"smiles": "N#C/C(=C\\c1ccc(O)c(O)c1)C(=O)c1ccc(O)c(O)c1", "note": "[AG538]", "values": [
      {"measurement": "selectivity towards IGF-1R over IR (in words)", "setting": "IGF-1R over IR", "result": "some selectivity"}
    ]},
    {"smiles": "CC(C)(C)c1cc(C=C(C#N)C#N)cc(Br)c1O", "note": "[AG1024]", "values": [
      {"measurement": "selectivity towards IGF-1R over IR (in words)", "setting": "IGF-1R over IR", "result": "some selectivity"}
    ]},
    {"smiles": "Nc1ncnc2c1c(-c1cccc(OCc3ccccc3)c1)cn2C1CC(CN2CCC2)C1", "note": "(centres unmarked) [NVP-AEW541]", "values": [
      {"measurement": "selectivity towards IGF-1R over IR", "setting": "IGF-1R over IR", "result": 100, "unit": "fold"}
    ]},
    {"smiles": "COc1cc([C@@H]2c3cc4c(cc3[C@H](O)[C@H]3COC(=O)[C@@H]23)OCO4)cc(OC)c1OC", "note": "[PPP, picropodophyllin]", "values": [
      {"measurement": "LD50", "setting": "rodents", "result": "> 500", "unit": "mg/kg"},
      {"measurement": "tumor regression", "setting": "[1]", "result": "complete tumor regression"},
      {"measurement": "IGF-1R activity", "setting": "IGF-1R", "result": "efficiently blocked IGF-1R activity"},
      {"measurement": "apoptosis", "setting": "[2]", "result": "induced apoptosis"},
      {"measurement": "pAkt and phosphorylated extracellular signal regulated kinase 1 and 2 (pErk1/2)", "setting": "[2]", "result": "reduced"}
    ]}
  ]
}
